# Reference: patent US8778958B2, “Synthesis of metabolically stable agents for alcohol and drug abuse” (priority 2008, dated 2014)
# Where two headings read alike, the source gives them in different places.
# Tests used:
# Assay in all cases: biochemical
# Format in all cases: binding
# μ-opioid receptor = molecular target: T1, μ-opioid receptor (Homo sapiens, UniProt P35372)
# T1 construct: expressed in transfected cells; host or cells: CHO cells
# δ-opioid receptor = molecular target: T2, δ-opioid receptor (Homo sapiens, UniProt P41143); details: Table 1b; for Ki: N-oxides
# T2 construct: expressed in transfected cells; host or cells: CHO cells
# T2 sequence (P41143 whole entry): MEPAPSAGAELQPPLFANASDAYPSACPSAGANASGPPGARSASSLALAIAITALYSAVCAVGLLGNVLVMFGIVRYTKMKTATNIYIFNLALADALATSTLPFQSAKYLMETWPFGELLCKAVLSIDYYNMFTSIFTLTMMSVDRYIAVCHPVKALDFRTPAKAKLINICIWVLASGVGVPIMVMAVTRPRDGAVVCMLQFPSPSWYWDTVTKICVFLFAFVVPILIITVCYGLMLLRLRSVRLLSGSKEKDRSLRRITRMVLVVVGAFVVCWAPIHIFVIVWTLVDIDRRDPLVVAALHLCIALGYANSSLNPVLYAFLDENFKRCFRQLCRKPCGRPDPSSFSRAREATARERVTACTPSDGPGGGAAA
# κ-opioid receptor = molecular target: T3, κ-opioid receptor (Homo sapiens, UniProt P41145); details: read-out: Ki (nM) ± SEM, κ
# T3 construct: expressed in transfected cells; host or cells: CHO cells
# T3 sequence (P41145 whole entry): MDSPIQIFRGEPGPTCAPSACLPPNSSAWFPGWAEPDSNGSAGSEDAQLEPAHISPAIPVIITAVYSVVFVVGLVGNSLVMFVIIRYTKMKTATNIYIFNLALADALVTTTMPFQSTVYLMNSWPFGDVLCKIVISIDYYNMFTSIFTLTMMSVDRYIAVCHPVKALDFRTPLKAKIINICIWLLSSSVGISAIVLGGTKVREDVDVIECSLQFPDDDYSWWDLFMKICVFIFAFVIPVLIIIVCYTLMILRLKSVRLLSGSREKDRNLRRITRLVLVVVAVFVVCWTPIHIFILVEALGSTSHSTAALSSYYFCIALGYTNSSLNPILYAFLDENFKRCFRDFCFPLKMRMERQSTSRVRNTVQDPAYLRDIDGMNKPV
# [1] = Ki (nM) ± SEM, μ, Table 1b, N-oxides
# T1 sequence (P35372 whole entry): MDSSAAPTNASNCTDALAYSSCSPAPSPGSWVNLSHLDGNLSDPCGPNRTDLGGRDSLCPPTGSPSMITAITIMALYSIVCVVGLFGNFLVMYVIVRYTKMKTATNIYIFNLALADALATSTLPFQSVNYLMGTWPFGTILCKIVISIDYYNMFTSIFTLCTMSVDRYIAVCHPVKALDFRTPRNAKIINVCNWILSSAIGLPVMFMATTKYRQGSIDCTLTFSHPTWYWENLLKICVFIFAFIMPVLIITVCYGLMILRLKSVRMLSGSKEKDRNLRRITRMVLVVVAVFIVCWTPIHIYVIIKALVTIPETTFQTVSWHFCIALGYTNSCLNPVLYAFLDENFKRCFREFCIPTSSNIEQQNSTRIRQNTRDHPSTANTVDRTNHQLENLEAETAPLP
Molecule,"Ki (μ-opioid receptor; read-out: Ki (nM) ± SEM, μ)","Ki (δ-opioid receptor; read-out: Ki (nM) ± SEM, δ)","Ki (κ-opioid receptor; Table 1b, N-oxides)","Inhibition of agonist binding, δ (δ-opioid receptor; concentration not given)",Ki (μ-opioid receptor; [1]),"Ki (δ-opioid receptor; Ki (nM) ± SEM, δ)",Ki (κ-opioid receptor)
"17-Cyclopropylmethyl-3,14-β-dihydroxy-4,5α-epoxy-6α-N-methyl-(3′,4′-dichloro)morphinan-N-oxide [Compound 51]",7.3 ± 0.2 nM,120 ± 5 nM,2 ± 0.09 nM,–,–,–,–
"17-Cyclopropylmethyl-3,14-β-dihydroxy-4,5α-epoxy-6β-N-methyl-(4′-iodo)morphinan-N-oxide [Compound 62]",408 ± 11.5 nM,–,224 ± 15.7 nM,<50% inh,–,–,–
"17-Cyclopropylmethyl-3,14β-dihydroxy-4,5α-epoxy-6α-(6-acetamido-2,3,4,6-tetra-O-benzyl-D-pyranose)morphinan-N-oxide [Compound 36]",308 ± 13 nM,1860 ± 144 nM,18 ± 1 nM,–,–,–,–
"CN(C(=O)/C=C/c1ccoc1)[C@@H]1CC[C@@]2(O)[C@H]3Cc4ccc(O)c5c4[C@@]2(CC[N+]3([O-])CC2CC2)[C@H]1O5 (relative stereo) [Compound 44, 17-Cyclopropylmethyl-3,14β-dihydroxy-4,5α-epoxy-6β-[N-methyl-trans-3-(3-furyl)acrylamido]morphinan-N-oxide]",–,–,–,–,65 ± 7.7 nM,2510 ± 231 nM,3.9 ± 0.5 nM
"Cc1ccc(C(=O)N[C@@H]2CC[C@@]3(O)[C@H]4Cc5ccc(O)c6c5[C@@]3(CC[N+]4([O-])CC3CC3)[C@H]2O6)cc1 (stereo partly drawn) [Compound 21, 17-Cyclopropylmethyl-3,14β-dihydroxy-4,5α-epoxy-6β-[(4′-methyl)benzamido]morphinan-N-oxide]",–,–,–,–,5.5 ± 0.2 nM,342 ± 12.6 nM,3.1 ± 0.16 nM
"O=C(N[C@@H]1CC[C@@]2(O)[C@H]3Cc4ccc(O)c5c4[C@@]2(CC[N+]3([O-])CC2CC2)[C@H]1O5)c1ccc(C(F)(F)F)cc1 (stereo partly drawn) [Compound 22, 17-Cyclopropylmethyl-3,14β-dihydroxy-4,5α-epoxy-6β-[(4′-trifluoromethyl)benzamido]morphinan-N-oxide]",–,–,–,–,1.4 ± 0.03 nM,117 ± 5.18 nM,1.9 ± 0.11 nM
"CC(C)(C)c1ccc(C(=O)N[C@@H]2CC[C@@]3(O)[C@H]4Cc5ccc(O)c6c5[C@@]3(CC[N+]4([O-])CC3CC3)[C@H]2O6)cc1 (stereo partly drawn) [Compound 23, 17-Cyclopropylmethyl-3,14β-dihydroxy-4,5α-epoxy-6β-[(4′-tert-butyl)benzamido]morphinan-N-oxide]",–,–,–,–,1.7 ± 0.07 nM,25 ± 2.38 nM,1.9 ± 0.14 nM
"CN(C)c1ccc(C(=O)N[C@@H]2CC[C@@]3(O)[C@H]4Cc5ccc(O)c6c5[C@@]3(CC[N+]4([O-])CC3CC3)[C@H]2O6)cc1 (stereo partly drawn) [Compound 24, 17-Cyclopropylmethyl-3,14β-dihydroxy-4,5α-epoxy-6β-[(4′-dimethylamino)benzamido]morphinan-N-oxide]",478 ± 23 nM,5850 ± 560 nM,227 ± 48.1 nM,–,–,–,–
"O=C(Cc1cccs1)N[C@@H]1CC[C@@]2(O)[C@H]3Cc4ccc(O)c5c4[C@@]2(CC[N+]3([O-])CC2CC2)[C@H]1O5 (stereo partly drawn) [Compound 25, 17-Cyclopropylmethyl-3,14β-dihydroxy-4,5α-epoxy-6β-[(thiophen-2′-yl)acetamido]morphinan-N-oxide]",34.8 ± 2.08 nM,752 ± 8.91 nM,13 ± 1 nM,–,–,–,–
"CN(C(=O)c1ccc(Br)cc1)[C@H]1CC[C@@]2(O)[C@H]3Cc4ccc(O)c5c4[C@@]2(CC[N+]3([O-])CC2CC2)[C@H]1O5 (stereo partly drawn) [Compound 26, 17-Cyclopropylmethyl-3,14β-dihydroxy-4,5α-epoxy-6α-N-methyl[(4′-bromo)benzamido]morphinan-N-oxide]",–,–,–,–,5.8 ± 0.21 nM,51 ± 5.8 nM,2.41 ± 0.19 nM
"CN(C(=O)c1ccc(C(C)(C)C)cc1)[C@@H]1CC[C@@]2(O)[C@H]3Cc4ccc(O)c5c4[C@@]2(CC[N+]3([O-])CC2CC2)[C@H]1O5 (stereo partly drawn) [Compound 27, 17-Cyclopropylmethyl-3,14β-dihydroxy-4,5α-epoxy-6β-N-methyl[(4′-tert-butyl)benzamido]morphinan-N-oxide]",714 ± 66 nM,535 ± 43.8 nM,72 ± 12.6 nM,–,–,–,–
"COc1ccc(C(=O)N[C@@H]2CC[C@@]3(O)[C@H]4Cc5ccc(O)c6c5[C@@]3(CC[N+]4([O-])CC3CC3)[C@H]2O6)cc1OC (stereo partly drawn) [Compound 29, 17-Cyclopropylmethyl-3,14β-dihydroxy-4,5α-epoxy-6β-[(3′,4′-dimethoxy)benzamido]morphinan-N-oxide]",–,–,–,–,37 ± 2 nM,621 ± 16.2 nM,71 ± 4.87 nM
"COc1cccc(C(=O)N[C@@H]2CC[C@@]3(O)[C@H]4Cc5ccc(O)c6c5[C@@]3(CC[N+]4([O-])CC3CC3)[C@H]2O6)c1 (stereo partly drawn) [Compound 30, 17-Cyclopropylmethyl-3,14β-dihydroxy-4,5α-epoxy-6β-[(3′-methoxy)benzamido]morphinan-N-oxide]",–,–,–,–,16 ± 1 nM,444 ± 39.1 nM,9.7 ± 0.95 nM
"O=C(N[C@@H]1CC[C@@]2(O)[C@H]3Cc4ccc(O)c5c4[C@@]2(CC[N+]3([O-])CC2CC2)[C@H]1O5)c1ccccc1 (stereo partly drawn) [Compound 32, 17-Cyclopropylmethyl-3,14β-dihydroxy-4,5α-epoxy-6β-(benzamido)morphinan-N-oxide]",–,–,–,–,28 ± 2 nM,813 ± 34 nM,8.5 ± 0.92 nM
"O=C(Cc1ccccc1)N[C@@H]1CC[C@@]2(O)[C@H]3Cc4ccc(O)c5c4[C@@]2(CC[N+]3([O-])CC2CC2)[C@H]1O5 (stereo partly drawn) [Compound 33, 17-Cyclopropylmethyl-3,14β-dihydroxy-4,5α-epoxy-6β-(phenylacetamido)morphinan-N-oxide]",–,–,–,–,43 ± 3 nM,1400 ± 40.5 nM,47 ± 4 nM
"O=C(N[C@@H]1CC[C@@]2(O)[C@H]3Cc4ccc(O)c5c4[C@@]2(CC[N+]3([O-])CC2CC2)[C@H]1O5)c1cccc(O)c1 (stereo partly drawn) [Compound 34, 17-Cyclopropylmethyl-3,14β-dihydroxy-4,5α-epoxy-6β-[(3′-hydroxy)benzamido]morphinan-N-oxide]",–,–,–,–,34 ± 2 nM,1170 ± 101 nM,49 ± 4 nM
"O=C(N[C@@H]1CC[C@@]2(O)[C@H]3Cc4ccc(O)c5c4[C@@]2(CC[N+]3([O-])CC2CC2)[C@H]1O5)c1ccc(Cl)cc1 (stereo partly drawn) [Compound 35, 17-Cyclopropylmethyl-3,14β-dihydroxy-4,5α-epoxy-6β-[(4′-chloro)benzamido]morphinan-N-oxide]",–,–,–,–,4.7 ± 0.12 nM,219 ± 7.97 nM,1.8 ± 0.1 nM
"O=C(N[C@H]1CC[C@@]2(O)[C@H]3Cc4ccc(O)c5c4[C@@]2(CC[N+]3([O-])CC2CC2)[C@H]1O5)c1ccccc1 (stereo partly drawn) [Compound 37, 17-Cyclopropylmethyl-3,14β-dihydroxy-4,5α-epoxy-6α-(benzamido)morphinan-N-oxide]",–,–,–,–,37 ± 2.6 nM,822 ± 124 nM,64 ± 10 nM
"COC(=O)c1ccc(C(=O)N[C@@H]2CC[C@@]3(O)[C@H]4Cc5ccc(O)c6c5[C@@]3(CC[N+]4([O-])CC3CC3)[C@H]2O6)cc1 (stereo partly drawn) [Compound 38, 17-Cyclopropylmethyl-3,14β-dihydroxy-4,5α-epoxy-6β-[(4′-carbomethoxy)benzamido]morphinan-N-oxide]",–,–,–,–,30 ± 2.1 nM,1390 ± 279 nM,51 ± 6 nM
"COc1ccc(CC(=O)N[C@@H]2CC[C@@]3(O)[C@H]4Cc5ccc(O)c6c5[C@@]3(CC[N+]4([O-])CC3CC3)[C@H]2O6)cc1 (stereo partly drawn) [Compound 39, 17-Cyclopropylmethyl-3,14β-dihydroxy-4,5α-epoxy-6β-[(4′-methoxy)phenylacetamido]morphinan N-oxide]",–,–,–,–,78 ± 20 nM,472 ± 78 nM,10 ± 1 nM
"O=C(N[C@@H]1CC[C@@]2(O)[C@H]3Cc4ccc(O)c5c4[C@@]2(CC[N+]3([O-])CC2CC2)[C@H]1O5)c1ccc([N+](=O)[O-])cc1 (stereo partly drawn) [Compound 40, 17-Cyclopropylmethyl-3,14β-dihydroxy-4,5α-epoxy-6β-[(4′-nitro)benzamido]morphinan-N-oxide]",–,–,–,–,38 ± 6.5 nM,590 ± 590 nM,6.7 ± 0.4 nM
"COc1ccc(C(=O)N[C@H]2CC[C@@]3(O)[C@H]4Cc5ccc(O)c6c5[C@@]3(CC[N+]4([O-])CC3CC3)[C@H]2O6)cc1OC (stereo partly drawn) [Compound 41, 17-Cyclopropylmethyl-3,14β-dihydroxy-4,5α-epoxy-6α-[(3′,4′-dimethoxy)benzamido]morphinan-N-oxide]",–,–,–,–,16 ± 2.7 nM,51 ± 2.45 nM,30 ± 3 nM
"COc1cccc(C(=O)N[C@@H]2CC[C@@]3(O)[C@H]4Cc5ccc(O)c6c5[C@@]3(CC[N+]4([O-])CC3CC3)[C@H]2O6)c1 (stereo partly drawn) [Compound 42, 17-Cyclopropylmethyl-3,14β-dihydroxy-4,5α-epoxy-6β-[(3′-methoxy)benzamido]morphinan-N-oxide]",–,–,–,–,49 ± 8.6 nM,1050 ± 38 nM,16 ± 2 nM
"O=C(N[C@@H]1CC[C@@]2(O)[C@H]3Cc4ccc(O)c5c4[C@@]2(CC[N+]3([O-])CC2CC2)[C@H]1O5)c1ccc(Cl)c(Cl)c1 (stereo partly drawn) [Compound 43, 17-Cyclopropylmethyl-3,14β-dihydroxy-4,5α-epoxy-6β-[(3′,4′-dichloro)benzamido]morphinan-N-oxide]",–,–,–,–,3.6 ± 0.43 nM,212 ± 11 nM,2 ± 0.2 nM
"CN(C(=O)c1ccc(I)cc1)[C@H]1CC[C@@]2(O)[C@H]3Cc4ccc(O)c5c4[C@@]2(CC[N+]3([O-])CC2CC2)[C@H]1O5 (stereo partly drawn) [Compound 47, 17-Cyclopropylmethyl-3,14-β-dihydroxy-4,5α-epoxy-6α-N-methyl-[(4′-iodo)benzamido]morphinan-N-oxide]",–,–,–,–,27.6 ± 0.8 nM,290 ± 17 nM,5.9 ± 0.4 nM
CN(C(=O)c1ccc(C(C)(C)C)cc1)[C@H]1CC[C@@]2(O)[C@H]3Cc4ccc(O)c5c4[C@@]2(CC[N+]3([O-])CC2CC2)[C@H]1O5 (stereo partly drawn) [Compound 48],26 ± 2 nM,148 ± 10 nM,14 ± 1 nM,–,–,–,–
"CN(C(=O)c1ccc(Cl)cc1)[C@H]1CC[C@@]2(O)[C@H]3Cc4ccc(O)c5c4[C@@]2(CC[N+]3([O-])CC2CC2)[C@H]1O5 (stereo partly drawn) [Compound 50, 17-Cyclopropylmethyl-3,14-β-dihydroxy-4,5α-epoxy-6α-N-methyl-[(4′-chloro)benzamido]morphinan-N-oxide]",369 ± 18 nM,3330 ± 160 nM,77 ± 8 nM,–,–,–,–
NC(=NO)c1cccc(C(=O)NC2CCC3(O)C4Cc5ccc(O)c6c5C3(CC[N+]4([O-])CC3CC3)C2O6)c1 (stereo not drawn) [Compound 52],–,–,–,–,114 ± 3.3 nM,1220 ± 45 nM,26 ± 1.81 nM
